Values joined by “and” are separate entries in the source; they are usually repeats but may differ in a detail not shown here. Equal entries are not always repeated.
Columns and labels:
Botrytis cinerea [1] = assay: Treatment of strawberries: wounded, inoculated with Botrytis cinerea, then dipped in antifungal composition; assay type: in vivo
Description: (§1) Ten fresh, organic strawberries were used per treatment. Each strawberry was wounded with a 0.5 mm long cut and each wound was inoculated with 10 μl of a Botrytis cinerea suspension containing 1×10^5 of spores/ml. […] The pH of the compositions was 4. A composition without natamycin or bixafen was used as control. The treated strawberries were incubated in a closed box in the dark at 20° C.
(§2) During incubation, mould growth on the strawberries was assessed in a twofold manner: (i) the number of moulded strawberries per total of 10 strawberries was counted; and (ii) the antifungal activity (in %) of the individual and combined active ingredients was determined by calculating the reduction in mould growth observed on the strawberries treated with the antifungal composition in comparison to the mould growth on the strawberries treated with the control composition. The expected antifungal activity (E in %) of the combined antifungal composition comprising both active ingredients was calculated according to the Colby equation (Colby, 1967): E=X+Y−[(X·Y)/100] wherein X and Y are the observed antifungal activities (in %) of the individual active ingredients X and Y, respectively. If the observed antifungal activity (O in %) of the combination exceeds the expected antifungal activity (E in %) of the combination and the synergy factor O/E is thus >1.0, the combined application of the active ingredients leads to a synergistic antifungal effect.
The treated strawberries were assessed on mould growth. The antifungal activity (in %) of the individual and combined active ingredients was determined according to the method described in Example 3. […]

Botrytis cinerea [2] = assay: Treatment of strawberries: wounded, dipped in antifungal composition, then inoculated with Botrytis cinerea; assay type: in vivo; settings: 1000 ppm bixafen or both
Description: as §1, §2
After treatment, each strawberry was inoculated with 10 μl of a Botrytis cinerea suspension containing 1×10^5 of spores/ml. The treated strawberries were assessed on mould growth according to the two methods described in Example 3.

Penicillium italicum [3] = assay: Treatment of mandarins wounded and inoculated with Penicillium italicum, then dipped; assay type: in vivo
Description: (§3) Ten fresh, organic mandarins were used per treatment. The peel of each mandarin was wounded once using a cork borer according to the method described by de Lapeyre de Bellaire and Dubois (1987). Subsequently, each wound was inoculated with 10 μl of a Penicillium italicum suspension containing 1×10^5 of spores/ml. […] The pH of the compositions was 4.
The treated mandarins were incubated in a closed box in the dark at 20° C. and assessed on mould growth during incubation.

Penicillium italicum [4] = assay: Treatment of apples wounded and inoculated with Penicillium italicum, then dipped; assay type: in vivo; settings: for Number of moulded apples/total number of 10 apples: 500 ppm natamycin; for Number of moulded apples per total of 10 apples: 250 ppm natamycin
Description: as §3, with “apples” for “mandarins”, “Each apple” for “The peel of each mandarin”, “1×10^6” for “1×10^5”, “4. A composition without natamycin or bixafen was used as control. The treated apples were incubated in a closed box in the dark at 20° C. […]” for “4.”
During incubation, the treated apples were assessed on mould growth according to the two methods described in Example 3. […]

Penicillium italicum [5] = assay: In vitro antifungal activity, 96-well microtiter plates; assay type: cell-based; settings: 25° C.
Description: Subsequently, 100 μl of a Botrytis cinerea suspension prepared in PCB medium was used to inoculated each well with 2.5×10^3 spores/ml.
After incubation of the microtiter plates at 25° C., the in vitro antifungal activity (%) of the individual active ingredients was assessed by calculating the reduction in mould growth observed in the presence of the active ingredient in comparison to the mould growth observed in the absence of the active ingredient. The expected antifungal activity (E in %) of the active ingredient combination was calculated according to the Colby equation (Colby, 1967): E=X+Y−[(X·Y)/100] wherein X and Y are the observed antifungal activities (in %) of the individual active ingredients X and Y, respectively. If the observed antifungal activity (O in %) of the combination exceeds the expected antifungal activity (E in %) of the combination and the resulting synergy factor O/E is thus >1.0, the combined application of the active ingredients leads to a synergistic antifungal effect.
Furthermore, Penicillium italicum was used for inoculation.

[6] = day 3, 500 ppm natamycin, 2000 ppm bixafen or both
[7] = day 4, 250 ppm natamycin, 250 ppm bixafen or both
[8] = day 4, 250 ppm natamycin, 500 ppm bixafen or both
[9] = day 4, 500 ppm natamycin, 2000 ppm bixafen or both
[10] = day 6, 250 ppm natamycin, 250 ppm bixafen or both
[11] = day 6, 250 ppm natamycin, 500 ppm bixafen or both
[12] = day 6, 500 ppm natamycin, 2000 ppm bixafen or both
[13] = day 7, 250 ppm natamycin, 250 ppm bixafen or both
[14] = day 7, 250 ppm natamycin, 500 ppm bixafen or both
[15] = day 9, 250 ppm natamycin, 500 ppm bixafen or both
[16] = day 9, 500 ppm natamycin, 2000 ppm bixafen or both
[17] = day 6, 500 ppm natamycin, 1000 ppm bixafen or both
[18] = day 11, 500 ppm natamycin, 2000 ppm bixafen or both
[19] = day 14, 500 ppm natamycin, 1000 ppm bixafen or both
[20] = day 14, 500 ppm natamycin, 2000 ppm bixafen or both

C[C@@H]1C/C=C/C=C/C=C/C=C/[C@H](O[C@@H]2O[C@H](C)[C@@H](O)[C@H](N)[C@@H]2O)C[C@@H]2O[C@](O)(C[C@@H](O)C[C@H]3O[C@@H]3/C=C/C(=O)O1)C[C@H](O)[C@H]2C(=O)O [Natamycin, natamycin]
Number of moulded strawberries/total number of 10 strawberries (Botrytis cinerea [1]; Day 3, 20° C., 250 ppm natamycin, 250 ppm bixafen or both): 8 and 8/10
Number of moulded strawberries/total number of 10 strawberries (Botrytis cinerea [1]; Day 3, 20° C., 500 ppm natamycin, 2000 ppm bixafen or both): 10 and 10/10
Number of moulded strawberries/total number of 10 strawberries (Botrytis cinerea [1]; Day 4, 20° C., 250 ppm natamycin, 250 ppm bixafen or both): 10 and 10/10
Number of moulded strawberries/total number of 10 strawberries (Botrytis cinerea [1]; Day 4, 20° C., 500 ppm natamycin, 2000 ppm bixafen or both): 10 and 10/10
Number of moulded strawberries/total number of 10 strawberries (Botrytis cinerea [1]; Day 5, 20° C., 250 ppm natamycin, 250 ppm bixafen or both): 10 and 10/10
Number of moulded strawberries/total number of 10 strawberries (Botrytis cinerea [1]; Day 5-6, 20° C., 500 ppm natamycin, 2000 ppm bixafen or both): 10 and 10/10
Observed antifungal activity O (%) (Botrytis cinerea [1]; [6]): 21%
Observed antifungal activity O (%) (Botrytis cinerea [1]; [7]): 6%
Observed antifungal activity O (%) (Botrytis cinerea [1]; [8]): 6%
Observed antifungal activity O (%) (Botrytis cinerea [1]; [9]): 16%
Observed antifungal activity O (%) (Botrytis cinerea [1]; day 5, 250 ppm natamycin, 250 ppm bixafen or both): 2%
Observed antifungal activity O (%) (Botrytis cinerea [1]; day 5, 500 ppm natamycin, 2000 ppm bixafen or both): 3%
Observed antifungal activity O (%) (Botrytis cinerea [1]; [10]): 0%
Observed antifungal activity O (%) (Botrytis cinerea [1]; [11]): 0%
Observed antifungal activity O (%) (Botrytis cinerea [1]; [12]): 0%
Observed antifungal activity O (%) (Botrytis cinerea [1]; [13]): 0%
Observed antifungal activity O (%) (Botrytis cinerea [1]; [14]): 0%
Observed antifungal activity O (%) (Botrytis cinerea [1]; day 7, 500 ppm natamycin, 2000 ppm bixafen or both): 0%
Observed antifungal activity O (%) (Botrytis cinerea [1]; [15]): 0%
Observed antifungal activity O (%) (Botrytis cinerea [1]; [16]): 0%
Observed antifungal activity O (%) (Botrytis cinerea [1]; day 10, 250 ppm natamycin, 500 ppm bixafen or both): 0%
Observed antifungal activity O (%) (Botrytis cinerea [2]; day 3, 500 ppm natamycin): 59%
Number of moulded wounds/total number of 10 wounds (Botrytis cinerea [2]; day 5, 20° C., 250 ppm natamycin): 10 and 10/10
Observed antifungal activity O (%) (Botrytis cinerea [2]; day 5, 500 ppm natamycin): 19%
Observed antifungal activity O (%) (Botrytis cinerea [2]; day 6, 500 ppm natamycin): 12%
Observed antifungal activity O (%) (Penicillium italicum [3]; day 3, 250 ppm natamycin, 250 ppm bixafen or both): 70%
Observed antifungal activity O (%) (Penicillium italicum [3]; [7]): 43%
Observed antifungal activity O (%) (Penicillium italicum [3]; [8]): 43%
Observed antifungal activity O (%) (Penicillium italicum [3]; day 4, 500 ppm natamycin, 1000 ppm bixafen or both): 63%
Observed antifungal activity O (%) (Penicillium italicum [3]; [9]): 63%
Observed antifungal activity O (%) (Penicillium italicum [3]; [10]): 18%
Observed antifungal activity O (%) (Penicillium italicum [3]; [11]): 18%
Observed antifungal activity O (%) (Penicillium italicum [3]; [17]): 28%
Observed antifungal activity O (%) (Penicillium italicum [3]; [12]): 28%
Observed antifungal activity O (%) (Penicillium italicum [3]; [13]): 10%
Observed antifungal activity O (%) (Penicillium italicum [3]; [14]): 10%
Observed antifungal activity O (%) (Penicillium italicum [3]; day 7, 500 ppm natamycin, 1000 ppm bixafen or both): 16%
Observed antifungal activity O (%) (Penicillium italicum [3]; day 9, 250 ppm natamycin, 250 ppm bixafen or both): 8%
Observed antifungal activity O (%) (Penicillium italicum [3]; [15]): 8%
Observed antifungal activity O (%) (Penicillium italicum [3]; day 11, 250 ppm natamycin, 500 ppm bixafen or both): 13%
Observed antifungal activity O (%) (Penicillium italicum [3]; [18]): 13%
Observed antifungal activity O (%) (Penicillium italicum [3]; day 13, 250 ppm natamycin, 500 ppm bixafen or both): 12%
Observed antifungal activity O (%) (Penicillium italicum [3]; [19]): 9%
Observed antifungal activity O (%) (Penicillium italicum [3]; [20]): 9%
Observed antifungal activity O (%) (Penicillium italicum [3]; day 15, 250 ppm natamycin, 500 ppm bixafen or both): 6%
Observed antifungal activity O (%) (Penicillium italicum [3]; day 15, 500 ppm natamycin, 1000 ppm bixafen or both): 5%
Observed antifungal activity O (%) (Penicillium italicum [3]; day 15, 500 ppm natamycin, 2000 ppm bixafen or both): 5%
Number of moulded apples/total number of 10 apples (Penicillium italicum [4]; Day 3, 20° C., 1000 ppm bixafen or both): 9 and 9/10
Number of moulded apples/total number of 10 apples (Penicillium italicum [4]; Day 3-4, 20° C., 2000 ppm bixafen or both): 9 and 9/10
Number of moulded apples/total number of 10 apples (Penicillium italicum [4]; Day 4, 20° C., 1000 ppm bixafen or both): 9 and 9/10
Number of moulded apples per total of 10 apples (Penicillium italicum [4]; Day 6, 20° C., 500 ppm bixafen or both): 10 and 10/10
Number of moulded apples/total number of 10 apples (Penicillium italicum [4]; Day 6, 20° C., 1000 ppm bixafen or both): 10 and 10/10
Number of moulded apples/total number of 10 apples (Penicillium italicum [4]; Day 6, 20° C., 2000 ppm bixafen or both): 10 and 10/10
Number of moulded apples per total of 10 apples (Penicillium italicum [4]; Day 6-9, 20° C., 250 ppm bixafen or both): all and 10/10
Number of moulded apples per total of 10 apples (Penicillium italicum [4]; Day 7, 20° C., 500 ppm bixafen or both): 10 and 10/10
Number of moulded apples/total number of 10 apples (Penicillium italicum [4]; Day 7, 20° C., 1000 ppm bixafen or both): 10 and 10/10
Number of moulded apples/total number of 10 apples (Penicillium italicum [4]; Day 7, 20° C., 2000 ppm bixafen or both): 10 and 10/10
Number of moulded apples per total of 10 apples (Penicillium italicum [4]; Day 9, 20° C., 500 ppm bixafen or both): 10 and 10/10
Number of moulded apples/total number of 10 apples (Penicillium italicum [4]; Day 9-14, 20° C., 1000 ppm bixafen or both): all and 10/10
Number of moulded apples/total number of 10 apples (Penicillium italicum [4]; Day 9-14, 20° C., 2000 ppm bixafen or both): all and 10/10
Number of moulded apples per total of 10 apples (Penicillium italicum [4]; Day 11-15, 20° C., 250 ppm bixafen or both): all and 10/10
Observed antifungal activity O (%) (Penicillium italicum [4]; day 3, 500 ppm natamycin, 1000 ppm bixafen or both): 33%
Observed antifungal activity O (%) (Penicillium italicum [4]; [6]): 33%
Observed antifungal activity O (%) (Penicillium italicum [4]; day 6, 250 ppm natamycin, 250 ppm bixafen or both (bixafen 500 ppm)): 38%
Observed antifungal activity O (%) (Penicillium italicum [4]; [11]): 38%
Observed antifungal activity O (%) (Penicillium italicum [4]; [17]): 6%
Observed antifungal activity O (%) (Penicillium italicum [4]; [12]): 6%
Observed antifungal activity O (%) (Penicillium italicum [4]; [14]): 42%
Observed antifungal activity O (%) (Penicillium italicum [4]; day 9, 250 ppm natamycin, 250 ppm bixafen or both (bixafen 500 ppm)): 35%
Observed antifungal activity O (%) (Penicillium italicum [4]; [15]): 35%
Observed antifungal activity O (%) (Penicillium italicum [4]; day 9, 500 ppm natamycin, 1000 ppm bixafen or both): 21%
Observed antifungal activity O (%) (Penicillium italicum [4]; [16]): 21%
Observed antifungal activity O (%) (Penicillium italicum [4]; day 11, 250 ppm natamycin, 250 ppm bixafen or both (bixafen 500 ppm)): 42%
Observed antifungal activity O (%) (Penicillium italicum [4]; day 11, 500 ppm natamycin, 1000 ppm bixafen or both): 26%
Observed antifungal activity O (%) (Penicillium italicum [4]; [18]): 26%
Observed antifungal activity O (%) (Penicillium italicum [4]; day 14, 250 ppm natamycin, 250 ppm bixafen or both (bixafen 500 ppm)): 49%
Observed antifungal activity O (%) (Penicillium italicum [4]; [19]): 30%
Observed antifungal activity O (%) (Penicillium italicum [4]; [20]): 30%
Observed antifungal activity O (%) (Penicillium italicum [5]; day 10, 0.63 ppm natamycin, 25 ppm isopyrazam or both): 0%
Observed antifungal activity O (%) (Penicillium italicum [5]; day 10, 1.25 ppm natamycin, 25 ppm bixafen or both): 0%
